Where two headings read alike, the source gives them in different places.
What was measured:
[1] = target: T1, CDK2/CyclinE1 (Homo sapiens, UniProt P24941); assay: Assay for inhibition of CDK2/CyclinE1 (Caliper microfluidic kinase assay); format: biochemical; conditions: read-out: CDK2 IC50
T1 construct: purchased SignalChem C29-18G
Outline: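 IC50 came from 4-parameter fits of substrate-to-product conversion, separated on a Caliper chip after an EDTA stop. Reactions ran 3 hours at room temperature with 100 μM ATP, 5 μM fluorescent FL-18 peptide and 5 nM enzyme in 100 mM HEPES pH 7.5, 10 mM MgCl2.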

[2] = target: T2, CDK4/CyclinD1 (Homo sapiens, UniProt P11802); assay: Assay for inhibition of CDK4/CyclinD1 (Caliper microfluidic kinase assay); format: biochemical
T2 construct: purchased Thermofisher PR8064A
T2 sequence (P11802 whole entry): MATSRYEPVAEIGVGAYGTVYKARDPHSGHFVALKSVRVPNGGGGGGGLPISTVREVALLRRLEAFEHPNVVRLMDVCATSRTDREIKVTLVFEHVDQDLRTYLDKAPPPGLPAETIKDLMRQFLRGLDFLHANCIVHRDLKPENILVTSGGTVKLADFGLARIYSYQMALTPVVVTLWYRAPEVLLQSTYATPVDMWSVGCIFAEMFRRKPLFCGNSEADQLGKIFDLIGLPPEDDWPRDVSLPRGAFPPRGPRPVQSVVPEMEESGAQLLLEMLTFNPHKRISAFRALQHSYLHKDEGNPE
T2 sequence (P24385 whole entry partner): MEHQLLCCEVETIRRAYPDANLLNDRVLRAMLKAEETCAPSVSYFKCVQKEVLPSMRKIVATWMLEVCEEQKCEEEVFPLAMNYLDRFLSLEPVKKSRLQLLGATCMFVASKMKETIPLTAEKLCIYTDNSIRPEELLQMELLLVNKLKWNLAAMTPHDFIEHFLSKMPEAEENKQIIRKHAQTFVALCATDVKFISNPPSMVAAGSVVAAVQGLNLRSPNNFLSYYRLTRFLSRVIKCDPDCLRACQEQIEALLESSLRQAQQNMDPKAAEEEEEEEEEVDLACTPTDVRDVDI
Outline: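 IC50 was obtained by 4-parameter sigmoidal fitting after 1 nM CDK4/CyclinD1, 200 μM ATP and 1 μM FL-34 substrate reacted for 3 h at room temperature (pH 7.5 HEPES, 10 mM MgCl2). After EDTA quench, substrate and product were separated and detected on a Caliper microfluidic chip.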

[3] = target: T3, CDK6/CyclinD3 (Homo sapiens, UniProt Q00534); assay: Assay for inhibition of CDK6/CyclinD3 (Caliper microfluidic kinase assay); format: biochemical
T3 construct: purchased Carna 04-107
T3 sequence (Q00534 whole entry): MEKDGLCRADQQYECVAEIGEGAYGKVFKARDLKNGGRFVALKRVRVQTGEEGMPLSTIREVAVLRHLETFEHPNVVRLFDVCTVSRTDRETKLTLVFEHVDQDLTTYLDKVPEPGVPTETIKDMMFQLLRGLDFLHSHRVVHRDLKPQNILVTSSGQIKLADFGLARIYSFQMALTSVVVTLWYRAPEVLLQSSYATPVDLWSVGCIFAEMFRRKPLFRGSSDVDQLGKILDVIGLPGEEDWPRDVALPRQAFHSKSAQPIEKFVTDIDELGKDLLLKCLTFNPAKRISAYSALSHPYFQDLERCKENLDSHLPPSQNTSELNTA
T3 sequence (P30281 whole entry partner): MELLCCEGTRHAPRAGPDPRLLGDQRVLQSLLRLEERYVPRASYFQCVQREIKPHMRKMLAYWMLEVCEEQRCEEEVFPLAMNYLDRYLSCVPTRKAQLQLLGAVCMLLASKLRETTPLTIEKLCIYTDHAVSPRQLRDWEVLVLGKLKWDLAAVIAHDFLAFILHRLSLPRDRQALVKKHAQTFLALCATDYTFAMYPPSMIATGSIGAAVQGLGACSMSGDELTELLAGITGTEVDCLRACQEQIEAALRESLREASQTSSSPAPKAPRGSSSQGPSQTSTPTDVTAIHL
Procedure: The CDK6 enzyme assay for IC50 determination was performed as follows. Microfluidic kinase detection technology (Caliper) was used to monitor the phosphorylation of peptide substrate by CDK6/CyclinD3. The total reaction volume is 15 μL containing buffer A (100 mM HEPES (pH 7.5), 0.1% BSA, 0.01% Triton X-100, 1 mM DTT, 10 mM MgCl2, 10 μM Sodium Orthovanadate, 10 μM Beta-Glycerophosphate), 300 μM ATP, 2 nM CDK6/CyclinD3 (Carna, 04-107), 1 μM FL-34 (5-FAM-[…]), and the test compound at appropriate dilutions in DMSO. All components were added to the 384-well plate (Corning, 4514), and incubated at Room Temperature for 3 hours. The reaction was terminated by addition of 15 μL Stop Buffer (180 mM HEPES (pH 7.5), 20 mM EDTA, Coating-3 reagent (PerkinElmer, 760050)). The plate was then loaded on Caliper EZ Reader (EZ Reader II, PerkinElmer, HD-4HYSG2772), and the reaction mixtures including substrate and product were sipped into the microfluidic chip for separation and detection. The IC50 values of the test compound were determined by fitting the inhibition curves by 4 parameter sigmoidal dose-response model using the Xlfit5/GraphPad Prism 5 software.

[4] = system: T47D breast cancer cells; assay: Anti-proliferation assay in T47D cell (Cyquant, day 6); format: cell-based, human; conditions: anti-proliferation, T47D cells, read-out: T47D IC50
Outline: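 A ten-point, 3-fold compound series (10 μM down to 0.51 nM) was applied to overnight-settled cells in 10% FBS RPMI 1640, and DNA content was read by CyQuant fluorescence 6 days later. An untreated plate read before dosing served as baseline for subtraction before IC50 fitting.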

[5] = system: phosphorylation of Retinoblastoma Protein (pRb Ser807/811 or Ser780) in T47D cells; assay: Inhibition of phosphorylation of retinoblastoma protein (pRb) in T47D cell (ELISA); format: cell-based, human
Procedure: T47D breast cancer cells from American Type Culture Collection (ATCC, HTB-133) were plated at 40,000 cells/well in 96-well plates, and were incubated in RPMI 1640 medium (Gibco, 31800105) with 10% Fetal Bovine Serum (FBS, Biowest, FB-1058). Cells were then allowed to adhere overnight at 37° C., 5% CO2. The following day, compounds were titrated in a 3-fold dilution scheme, and the highest compound concentration tested was […]. After 24 hours incubation with compounds, cells were lysed in ice-cold lysis buffer containing phosphatase inhibitor cocktail and 1 mM PMSF. Cell lysates (50 μL/well) were then transferred to ELISA plates (pRb Ser807/811 ELISA kit, Cell Signaling, 13152 or pRb Ser780 ELISA kit, Cell Signaling, 13016)). Plates were incubated overnight at 4° C., with constant slow speed shaking. After incubation, plates were washed following manufacturer's recommendations, and then 100 μL reconstituted detection antibody was added to each well and incubated for 1 hour at 37° C. After incubation, plates were washed, and then 100 μL reconstituted HRP-linked secondary antibody was added to each well and incubated for 30 mins at 37° C. After incubation, plates were washed. Then, 100 μL TMB substrate was added to each well and incubated for 10 min at 37° C. or 30 min at 25° C. Finally, 100 μL of STOP solution was added to each well and mixed gently for a few seconds. Plates were read on the Envision plate reader (PerkinElmer, 2104-0010) using the 96-well […] mode. IC50 values were calculated using 4 parameter sigmoidal dose-response model of Xlfit5/GraphPad Prism 5 software.

[6] = Homo sapiens, T47D, read-out: Phospho T47D Ser807 IC50, pRb Ser807 phosphorylation, T47D cells

Row | Molecule | IC50 ([1]; CDK2/CyclinE1, 100 μM ATP) | IC50 ([2]; CDK4/CyclinD1, 200 μM ATP) | IC50 ([3]; CDK6/CyclinD3, 300 μM ATP) | IC50 [4] | IC50 ([4]; Homo sapiens, T47D) | IC50 [5, 6] | IC50 ([1]; CDK2/CyclinE1) | IC50 ([2]; CDK4/CyclinD1) | IC50 ([3]; CDK6/CyclinD3) | IC50 ([5]; pRb Ser807 phosphorylation, T47D cells, read-out: Phospho T47D Ser807 IC50)
1 | CC(C)c1cnn2ccc(-c3ccnc(Nc4ccc(N5CCC(N(C)C)CC5)cn4)n3)cc12 (single isomer, unassigned) [Synthetic Example 161, N-[5-[4-(dimethylamino)-1-piperidyl]-2-pyridyl]-4-(3-isopropylpyrazolo[1,5-a]pyridin-5-yl)pyrimidin-2-amine] | < 0.01 µM | < 0.01 µM | < 0.01 µM | < 0.1 µM |  |  |  |  |  | 
2 | CC(C)c1cnn2ccc(-c3nc(NC4CCN(S(C)(=O)=O)CC4)ncc3F)cc12 [Synthetic Example 10] | 0.01 to 0.1 µM | 0.01 to 0.1 µM | 0.1 to 1 µM |  | 0.1 to 0.5 µM |  |  |  |  | 
3 | CC(C)c1cnn2ccc(-c3ccnc(Nc4ccn(CC5CCN(C(=O)CO)CC5)n4)n3)cc12 [Synthetic Example 55] | > 1 µM | 0.01 to 0.1 µM |  |  | 0.5 to 1 µM | 0.1 to 0.5 µM |  |  |  | 
4 | CC(C)c1cnn2ccc(-c3nc(Nc4ccc(N5CCOCC5=O)cn4)ncc3F)cc12 [compound 2] | < 0.01 µM | < 0.01 µM | 0.01 to 0.1 µM |  | < 0.1 µM |  |  |  |  | 
5 | CC(C)c1cnn2ccc(-c3nc(Nc4ccc(CN5CCN6CCCC6C5)cn4)ncc3F)cc12 (stereo not drawn) [compound 8] | > 1 µM | 0.01 to 0.1 µM | 0.1 to 1 µM |  | > 1 µM |  |  |  |  | 
6 | CC(C)c1cnn2ccc(-c3nc(Nc4ccc(N5CCC(N(C)C)CC5)cn4)ncc3F)cc12 [compound 9] | 0.1 to 1 µM | < 0.01 µM | 0.01 to 0.1 µM |  | 0.1 to 0.5 µM |  |  |  |  | 
7 | Cc1nc(Nc2ncc(F)c(-c3ccn4ncc(C(C)C)c4c3)n2)ccc1C(=O)N1CCC(NC2CC2)CC1 [compound 11] | 0.1 to 1 µM | 0.01 to 0.1 µM | 0.01 to 0.1 µM |  | 0.1 to 0.5 µM |  |  |  |  | 
8 | CC(C)c1cnn2ccc(-c3nc(Nc4ccc(CN5CCOCC5=O)cn4)ncc3F)cc12 [compound 15] | 0.1 to 1 µM | 0.01 to 0.1 µM | 0.1 to 1 µM |  | 0.5 to 1 µM |  |  |  |  | 
9 | CC(C)c1cnn2ccc(-c3ccnc(Nc4ccn(CC5CCNCC5)n4)n3)cc12 [compound 32] | > 1 µM | 0.01 to 0.1 µM |  |  | 0.1 to 0.5 µM | 0.1 to 0.5 µM |  |  |  | 
10 | CC(C)c1cnn2ccc(-c3ccnc(Nc4cnn(CC5CCNCC5)c4)n3)cc12 [compound 36] | 0.01 to 0.1 µM | 0.01 to 0.1 µM |  |  | 0.1 to 0.5 µM | 0.1 to 0.5 µM |  |  |  | 
11 | CC(C)c1cnn2ccc(-c3ccnc(Nc4ccn(CC5CCN(C(=O)CC#N)CC5)n4)n3)cc12 [compound 56] | > 1 µM | 0.01 to 0.1 µM |  |  |  | 0.1 to 0.5 µM |  |  |  | 
12 | COc1nc(-c2nc(Nc3ccc(N4CC5CCC(C4)O5)cn3)ncc2F)cc2c1nc(C)n2C(C)C [compound 65] |  |  |  |  |  | 0.1 to 0.5 µM | > 1 µM | 0.01 to 0.1 µM |  | 
13 | COc1nc(-c2ccnc(Nc3ccc(CN4CCC(C#N)C4)cn3)n2)cc2c1ncn2C(C)C (stereo not drawn) [compound 67] |  |  |  |  |  | 0.1 to 0.5 µM | > 1 µM | 0.01 to 0.1 µM |  | 
14 | COc1nc(-c2nc(Nc3ccc(N4CCOCC4=O)cn3)ncc2C)cc2c1nc(C)n2C(C)C [compound 75] |  |  |  |  | < 0.1 µM |  | 0.1 to 1 µM | < 0.01 µM | 0.01 to 0.1 µM | 
15 | COc1nc(-c2ccnc(Nc3ccc(CN4CCC(F)C4)cn3)n2)cc2c1ncn2C(C)C (stereo not drawn) [compound 76] |  |  |  |  |  | 0.1 to 0.5 µM | > 1 µM | 0.01 to 0.1 µM |  | 
16 | COc1nc(-c2nc(Nc3ccc(N4CCC5(CC4)CC(=O)NC5=O)cn3)ncc2F)cc2c1nc(C)n2C(C)C [compound 79] |  |  |  |  |  | 0.1 to 0.5 µM | > 1 µM | 0.01 to 0.1 µM |  | 
17 | COc1nc(-c2nc(Nc3ccc(C(=O)N4CCC(NC5CC5)CC4)c(C)n3)ncc2F)cc2c1nc(C)n2C(C)C [compound 86] |  |  |  |  | 0.1 to 0.5 µM |  | > 1 µM | 0.01 to 0.1 µM | 0.01 to 0.1 µM | 
18 | COc1nc(-c2nc(Nc3ccc(N4CCNCC4=O)cn3)ncc2F)cc2c1nc(C)n2C(C)C [compound 107] | > 1 µM | < 0.01 µM | 0.01 to 0.1 µM |  | 0.1 to 0.5 µM |  |  |  |  | 
19 | COc1nc(-c2nc(Nc3ccc(N4CCN(CC(F)(F)F)CC4=O)cn3)ncc2F)cc2c1nc(C)n2C(C)C [compound 124] | > 1 µM | < 0.01 µM | 0.01 to 0.1 µM |  | 0.1 to 0.5 µM |  |  |  |  | 
20 | COc1nc(-c2nc(Nc3ccc(N4CCN(CCF)CC4)cn3)ncc2F)cc2c1ncn2C(C)C [compound 125] | > 1 µM | 0.01 to 0.1 µM |  |  |  | 0.1 to 0.5 µM |  |  |  | 
21 | COc1nc(-c2nc(Nc3ccc(N4CCN(C5COC5)CC4)cn3)ncc2F)cc2c1ncn2C(C)C [compound 133] | > 1 µM | 0.01 to 0.1 µM |  |  |  | 0.1 to 0.5 µM |  |  |  | 
22 | CNC1CCCN(c2ccc(Nc3nccc(-c4ccn5ncc(C(C)C)c5c4)n3)cc2)C1=O (stereo not drawn) [compound 215] | < 0.01 µM | < 0.01 µM | < 0.01 µM |  | < 0.1 µM |  |  |  |  | 
23 | CNC1CCCN(c2ccc(Nc3nccc(-c4ccn5nc(C)c(C(C)C)c5c4)n3)cc2)C1=O (stereo not drawn) [compound 217] | 0.01 to 0.1 µM | < 0.01 µM | < 0.01 µM |  | < 0.1 µM |  |  |  |  | 
24 | CC(C)c1cnn2ccc(-c3ccnc(Nc4ccc(N5CCNCC5=O)cc4)n3)cc12 [compound 226] | < 0.01 µM | < 0.01 µM | < 0.01 µM |  | < 0.1 µM |  |  |  |  | 
25 | CC(C)n1cnc2c(F)nc(-c3ccnc(Nc4ccc(N5CCN(C)CC5)cn4)n3)cc21 [compound 290] | 0.1 to 1 µM | < 0.01 µM |  |  |  | < 0.1 µM |  |  |  | 
26 | N-[5-[4-(dimethylamino)-1-piperidyl]-2-pyridyl]-4-(3-isopropylpyrazolo[1,5-a]pyridin-5-yl)pyrimidin-2-amine [Synthetic Example 161] |  |  |  |  |  |  |  |  |  | < 0.1 µM

From patent US20220296595A1, “CDK INHIBITORS” (QILU REGOR THERAPEUTICS INC., priority 2019, published 2022)
